Test results published in patent US8658645B2, “Use of quinolone antibiotics” (Bayer Intellectual Property GmbH, priority 2003, dated 2014).
Converted amounts (≈) assume the structure as drawn. Where two headings read alike, the source gives them in different places.

What was measured:
Porphyromonas = assay: Geometric mean MIC of anaerobic bacteria isolated from dogs and cats (in vitro); format: cell-based; details: N=8, isolated from dogs and cats, two in vitro studies, read-out: GMIC (geometric mean of the MIC values)
Description: (§1) Results of In Vitro Studies Geometric mean of the MIC values (Geometric Mean MIC; GMIC) of anaerobic bacteria isolated from dogs and cats compared to the standard metronidazole (μg/ml).

Fusobacterium = assay: as above; format: cell-based; details: N=11, isolated from dogs and cats, two in vitro studies, read-out: GMIC (geometric mean of the MIC values)
Description: as §1

Bacteroides = assay: as above; format: cell-based; details: N=37, isolated from dogs and cats, two in vitro studies, read-out: GMIC (geometric mean of the MIC values)
Description: as §1

Peptostreptococcus = assay: as above; format: cell-based; details: N=4, isolated from dogs and cats, two in vitro studies, read-out: GMIC (geometric mean of the MIC values)
Description: as §1

Prevotella = assay: as above; format: cell-based; details: N=25, isolated from dogs and cats, two in vitro studies, read-out: GMIC (geometric mean of the MIC values)
Description: as §1

parodontitis = assay: Clinical study for the indication parodontitis; format: in vivo; details: female beagles, 3 mg/kg once per day for seven days
Procedure: Clinical Study for the Indication Parodontitis
The study was carried out using 16 female beagles. Pradofloxacin was administered in a dose of 3 mg/kg once per day over a period of seven days.

[1] = test system: Actinobacillus actinomycetemcomitans; assay: In vitro MIC, parodontitis-causing bacteria; format: cell-based; details: Aggregatibacter actinomycetemcomitans, two strains
Procedure: (§2) In this study, in each case two strains of the parodontitis-causing bacteria were isolated, and their sensitivity to pradofloxacin was determined in vitro (MIC μg/ml).

[2] = test system: Porphyromonas cangingivalis; assay: In vitro MIC, parodontitis-causing bacteria; format: cell-based; details: two strains
Procedure: as §2

Porphyromonas cansulci = assay: In vitro MIC, parodontitis-causing bacteria; format: cell-based; details: Porphyromonas crevioricanis, two strains
Procedure: as §2

Fusobacterium nucleatum = assay: In vitro MIC, parodontitis-causing bacteria; format: cell-based; details: two strains
Procedure: as §2

Porphyromonas canons = assay: In vitro MIC, parodontitis-causing bacteria; format: cell-based; details: two strains
Procedure: as §2

Capnocytophaga ochracea = assay: In vitro MIC, parodontitis-causing bacteria; format: cell-based; details: two strains
Procedure: as §2

Campylobacter rectus = assay: In vitro MIC, parodontitis-causing bacteria; format: cell-based; details: two strains
Procedure: as §2

Porphyromonas gingivalis = assay: In vitro MIC, parodontitis-causing bacteria; format: cell-based; details: two strains
Procedure: as §2

Prevotella intermedia = assay: In vitro MIC, parodontitis-causing bacteria; format: cell-based; details: two strains
Procedure: as §2

Eikenella corrodens = assay: In vitro MIC, parodontitis-causing bacteria; format: cell-based; details: two strains
Procedure: as §2

SMILES | MIC (Porphyromonas) [µg/mL] | MIC (Fusobacterium) [µg/mL] | MIC (Bacteroides) [µg/mL] | MIC (Peptostreptococcus) [µg/mL] | MIC (Prevotella) [µg/mL] | total number of anaerobic bacteria in the periodontal pockets (parodontitis; after the treatment had ended, p<0.0001) | periodontal pocket depth (loss of attachment) (parodontitis; p=0.02) | total number of anaerobic bacteria in the periodontal pockets (parodontitis; three weeks after the treatment, day 28, p=0.0007) | MIC [1] [µg/mL] | MIC [2] [µg/mL] | MIC ([2]; read-out: MIC) [µg/mL] | MIC (Porphyromonas cansulci) [µg/mL] | MIC (Fusobacterium nucleatum) [µg/mL] | MIC (Fusobacterium nucleatum; read-out: MIC) [µg/mL] | MIC (Porphyromonas canons) [µg/mL] | MIC (Capnocytophaga ochracea) [µg/mL] | MIC (Campylobacter rectus) [µg/mL] | MIC (Porphyromonas gingivalis) [µg/mL] | MIC (Prevotella intermedia) [µg/mL] | MIC (Eikenella corrodens) [µg/mL]
Cc1ncc([N+](=O)[O-])n1CCO [metronidazole, reference compound] | 0.3 | 1 | 0.7 | 0.8 | 0.4 | – | – | – | – | – | – | – | – | – | – | – | – | – | – | –
N#Cc1c(N2C[C@@H]3CCCN[C@@H]3C2)c(F)cc2c(=O)c(C(=O)O)cn(C3CC3)c12 [pradofloxacin, 8-cyano-1-cyclopropyl-7-((1S,6S)-2,8-diazabicyclo[4.3.0]nonan-8-yl)-6-fluoro-1,4-dihydro-4-oxo-3-quinolinecarboxylic acid] | 0.1 | 0.5 | 0.4 | 0.4 | 0.2 | reduced significantly | significant reduction | reduced significantly | < 0.25 | 1 (≈ 2.52 µM) | 0.5 (≈ 1.26 µM) | < 0.25 | 1 (≈ 2.52 µM) | 0.5 (≈ 1.26 µM) | < 0.25 | < 0.25 | < 0.25 | < 0.25 | < 0.25 | < 0.25
